# Test system: reactive microglia
# Assay: PET/CT imaging of neuroinflammation in 5×FAD transgenic mice vs wild type
# Format: in vivo, mouse
# Details: 3.75 months of age
# Description: To further evaluate the ability of ^18F-OP-801 to image neuroinflammation in neurogenerative diseases, the 5×FAD transgenic mouse model was used. 5×FAD transgenic mice (B6SJL-Tg (APPSwFlLon,PSEN1*M146L*L286V)6799Vas) expressed human APP and PSEN1 transgenes developing amyloid plaque within a few months after birth and previous studies with TSPO PET radiotracers have only been able to detect neuroinflammation around 6 months (˜26 weeks) of age with a high TPSO affinity radiotracer, ^18F-GE180. 5×FAD female mice and age matched controls were used at 3.75 months of age to evaluate ^18F-OP-801 compared to the TPSO radiotracer, ^18F-GE180. ^18F-OP-801 ([…]) was injected as an IV bolus into wild type (n=7) and 5×FAD females (n=12) at 3.75 months of age. ^18F-GE180 (150-250 μCi) was administered to the 5×FAD transgenic (n=5) and wild type (n=4) female mice at 3.75 months of age. Static 10-minute PET/CT images were acquired at 50-60 minutes post-injection.
compound,measurement,setting,value
CCN(CC)C(=O)[C@H]1CCCc2c1c1c(OC)cccc1n2CC[18F] [^18F-GE180],PET signal in 5×FAD mice compared to wild type mice,50-60 minutes post-injection,minimal PET signal differences
same,"TG-to-WT ratio, Cortex",5xFAD mice,1.21
same,"TG-to-WT ratio, Hippocampus",5xFAD mice,1.24
same,"TG-to-WT ratio, Whole Brain",5xFAD mice,1.21
